Measured values: US20240398821A1, “FLAVONOID DERIVATIVES WITH GABAA RECEPTOR ACTIVITY AND METHODS OF USE” (RUTGERS, THE STATE UNIVERSITY OF NEW JERSEY, priority 2021, published 2024)

What was measured:
GABAA receptor = test: Preliminary classification of GABAAR modulation from electrophysiology against 4 GABAA subtypes; assay type: cell-based; settings: from the four subtype results
Source text: As an assessment for potential anxiolytic activity, compounds were screened for in vitro GABAA receptor activity utilizing electrophysiology studies. This is a well-established method of assessing activity of GABAA receptor positive allosteric modulators (PAMs) with known anxiolytic activity. The link between anxiolytic and sedative activity associated with α1/2/3βγ GABAAR subtypes is also well-established by previous studies. and there is a well-established history of clinical efficacy, utility, and risks associated with the use of full GABAAR PAMs [i.e. benzodiazepines (BZDs)] in the treatment of anxiety and seizure disorders.
(§1) To evaluate GABAA receptor activity, compounds were evaluated with electrophysiology studies of against 4 GABAA subtypes (GABAA α1β2γ2L, α2θ3γ2L, α5θ3γ2L and α4θ3δ) in positive allosteric modulator (PAM) mode using the SyncroPatch automated platform at room temperature. A 6-point concentration-response curve of each test compound (10, 1, 0.1, 0.01, 0.001, or 0.0001 μM in DMSO). The rapid addition protocol was used, in which compound is rapidly applied and then washed off from the cell. 0.3% DMSO was used as negative control.
The fold increase is generated using the following equation, (Icomp/Icontrol)−1, where Icomp is the current amplitude in the presence of the compound and Icontrol is the current amplitude in the presence of agonist alone. This builds an EC50 concentration-response curve, where 0 represents no PAM activity and >0 represents PAM activity. If a “bell-shape curve” is observed at the higher concentrations, showing a reduction in activity in comparison to previous concentrations, then to allow for a more accurate curve fit, these concentrations are removed from the graphs where necessary and noted in the compound table. The % Emax relative to Allopregnanolone is generated using the following equation, • [(IMaxComp/IAveMaxCtrl)*100], where IMaxComp is the individual maximum fold increase in current for each compound and IAveMaxCtrl is the average maximum fold increase generated in the presence of the control, allopregnanolone.

GABAA α2θ3γ2L = molecular target: T1, GABAA α2θ3γ2L (Homo sapiens, UniProt P18507+P28472+P47869); test: SyncroPatch automated patch-clamp electrophysiology, PAM mode; assay type: cell-based; settings: for Potency, α2βy, *EC50 / EC50: PAM mode, GABA EC10-20, 6-point curve up to 10 μM, EC50 called extrapolated; for EC50: read-out: Potency, α2βy, *EC50; for Potency, α2βy, % in brackets: bracketed % beside EC50/IC50
T1 construct: expressed in transfected cells
Procedure: as §1
(§2) Test compounds: 6-point concentration-response curve of each test compound (10, 1, 0.1, 0.01, 0.001, 0.0001 μM in DMO).
(§3) Positive control: 5-point concentration-response curve of allopregnanolone ([…]).
(§4) Negative control: 0.3% DMSO
(§5) Each compound is tested across the plate with a single concentration per cell. A minimum of 2 wells are obtained per each concentration.
(§6) Powder stocks and DMSO stocks are stored at room temperature (in the dark). The powder stocks are diluted to 3 mM in 100% DMSO on the day of experiment.
(§7) SyncroPatch specific solutions are used throughout the assay. DMSO remains constant at 0.3% in the external solution throughout the assay.
(§8) The rapid addition protocol is used, in which compound is rapidly applied and then washed off from the cell. To test for PAM activity, the agonist GABA EC10-20 is applied three times (with wash steps in-between) as a control and to show activation reproducibility, followed by a 1 to 2 minute pre-incubation of client compound and then re-application of GABA EC10-20 in the presence of client compound. After a further wash step, maximum GABA (10 mM) is applied.
(§9) Automated patch clamp-recordings are performed using the SyncroPatch 384i. The voltage protocol generation and data collection are performed with PatchController384 V1.9.0 and Data Controller V1.9.0.
(§10) The fold increase is generated using the following equation, (Icomp/Icontrol)−1, where Icomp is the current amplitude in the presence of the compound and Icontrol is the current amplitude in the presence of agonist alone. This builds an EC50 concentration-response curve, where 0 represents no PAM activity and >0 represents PAM activity. […] The % Emax relative to Allopregnanolone is generated using the following equation, • [(IMaxComp/IAveMaxCtrl)*100], where IMaxComp is the individual maximum fold increase in current for each compound and IAveMaxCtrl is the average maximum fold increase generated in the presence of the control, allopregnanolone.
(§11) To test for PAM activity, the agonist GABA EC 10-20 was applied three times (with wash steps in-between) as a control and to show activation reproducibility, followed by a 1 to 2 minutes pre-incubation of client compound and then re-application of GABA EC 10-20 in the presence of client compound. After a further wash step, maximum GABA (10 mM) was applied. Allopregnanolone was utilized as a positive control. FIGS. 5A and 5B show for dose response of EC2-118 in comparison to that of allopregnanolone (positive control).

GABAA α5θ3γ2L = molecular target: T2, GABAA α5θ3γ2L (Homo sapiens, UniProt P18507+P28472+P31644); test: as above; assay type: cell-based
T2 construct: expressed in transfected cells
Procedure: as §1, §2, §3, §4, §5, §6, §7, §8, §9, §10, §11

GABAA α1β2γ2L = molecular target: T3, GABAA α1β2γ2L (Homo sapiens, UniProt P14867+P18507+P47870); test: as above; assay type: cell-based; settings: for Potency, α1βy, % in brackets: bracketed % beside EC50/IC50
T3 construct: expressed in transfected cells
Procedure: as §1, with “A 6-point concentration-response curve of each test compound (10, 1, 0.1, 0.01, 0.001, or 0.0001 μM in DMSO).” left out
as §3, §4, §5, §6, §7
(§12) The rapid addition protocol is used, in which compound is rapidly applied and then washed off from the cell. […] After a further wash step, maximum GABA (10 mM) is applied.
(§13) The voltage protocol generation and data collection are performed with PatchController384 V1.9.0 and Data Controller V1.9.0.
as §10, with “alone.” for “alone. This builds an EC50 concentration-response curve, where 0 represents no PAM activity and >0 represents PAM activity.”
(§14) After a further wash step, maximum GABA (10 mM) was applied. Allopregnanolone was utilized as a positive control.

GABAA α4θ3δ = molecular target: T4, GABAA α4θ3δ (Homo sapiens, UniProt O14764+P28472+P48169); test: as above; assay type: cell-based; settings: for Potency, α4βδ (also printed α4βy), % in brackets: bracketed % beside EC50/IC50
T4 construct: expressed in transfected cells
Procedure: as §1, with “A 6-point concentration-response curve of each test compound (10, 1, 0.1, 0.01, 0.001, or 0.0001 μM in DMSO).” left out
as §3, §4, §5, §6, §7, §12, §13
as §10, with “alone.” for “alone. This builds an EC50 concentration-response curve, where 0 represents no PAM activity and >0 represents PAM activity.”
as §14

anxiety = test: Open field test (OFT) and elevated plus maze (EPM), IP administration; assay type: in vivo, rats
Procedure: FIG. 7 is a representation of rat movements during an open field test. Increased time in the open arms signifies anti-anxiety activity. […] The purple lines represent the motion of the rat.
In vivo studies in rats were conducted in the Bello laboratory as preliminary screening for activity of EC2-118. Male and female rats were exposed to an open field test (OFT) and elevated plus maze (EPM) 7 days apart (Kshatriya et al., 2020). Each group (n=8/group, […]) received IP injection 30 min prior to IP dosing of EC2-118 or vehicle control. We performed OFT and EPM in 52 adult SD rats (26 male/26 female). The groups were as follow vehicle (0.9% Saline, 4% Tween 80, and 4% DMSO; n=9 males; n=10 females), 3.95 mg/kg (n=10 males; n=8 females), 12.5 mg/kg (n=7 males, females n=8).

loss-of-righting-reflex = test: Loss-of-righting-reflex (LORR), alone and with alcohol; assay type: in vivo; settings: rats
Procedure: Rats were given EC2-118 (3.95 mg/kg IP) and alcohol (3 g/kg) and assessed for duration of loss-of-righting-reflex (LORR). […] The effects of EC2-118 (12.5 mg/kg IP) on alcohol-induced LORR were not determined.

[1] = PAM mode, GABA EC10-20, 6-point curve up to 10 μM
[2] = PAM mode, GABA EC10-20, 6-point curve up to 10 μM, EC50 called extrapolated

T4 sequence (P48169 36-554): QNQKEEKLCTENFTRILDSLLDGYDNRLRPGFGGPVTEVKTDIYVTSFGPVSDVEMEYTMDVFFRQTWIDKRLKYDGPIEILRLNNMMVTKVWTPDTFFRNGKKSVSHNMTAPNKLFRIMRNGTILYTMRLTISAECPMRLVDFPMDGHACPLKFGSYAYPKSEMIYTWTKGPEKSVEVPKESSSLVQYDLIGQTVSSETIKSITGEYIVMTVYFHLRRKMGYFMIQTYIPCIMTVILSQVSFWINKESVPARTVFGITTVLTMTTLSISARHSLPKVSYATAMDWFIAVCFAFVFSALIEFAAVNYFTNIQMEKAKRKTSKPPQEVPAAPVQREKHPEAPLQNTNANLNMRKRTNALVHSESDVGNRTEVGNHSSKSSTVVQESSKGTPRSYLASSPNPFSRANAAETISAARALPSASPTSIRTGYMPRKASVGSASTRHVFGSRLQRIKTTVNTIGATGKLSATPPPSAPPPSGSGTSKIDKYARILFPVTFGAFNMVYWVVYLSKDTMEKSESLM
T4 sequence (P28472 26-473): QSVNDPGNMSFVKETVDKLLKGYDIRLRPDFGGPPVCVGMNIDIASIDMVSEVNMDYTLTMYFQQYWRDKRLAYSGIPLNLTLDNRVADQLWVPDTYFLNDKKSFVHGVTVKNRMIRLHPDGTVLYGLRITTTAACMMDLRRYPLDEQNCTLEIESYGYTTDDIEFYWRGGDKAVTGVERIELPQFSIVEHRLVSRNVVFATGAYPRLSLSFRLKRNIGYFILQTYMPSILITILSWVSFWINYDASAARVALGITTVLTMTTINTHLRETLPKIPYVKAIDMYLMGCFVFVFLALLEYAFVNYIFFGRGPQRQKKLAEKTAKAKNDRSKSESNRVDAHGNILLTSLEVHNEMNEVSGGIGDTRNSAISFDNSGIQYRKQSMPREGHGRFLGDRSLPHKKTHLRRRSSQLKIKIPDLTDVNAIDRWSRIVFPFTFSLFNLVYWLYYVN
T4 sequence (O14764 17-452 limits assumed): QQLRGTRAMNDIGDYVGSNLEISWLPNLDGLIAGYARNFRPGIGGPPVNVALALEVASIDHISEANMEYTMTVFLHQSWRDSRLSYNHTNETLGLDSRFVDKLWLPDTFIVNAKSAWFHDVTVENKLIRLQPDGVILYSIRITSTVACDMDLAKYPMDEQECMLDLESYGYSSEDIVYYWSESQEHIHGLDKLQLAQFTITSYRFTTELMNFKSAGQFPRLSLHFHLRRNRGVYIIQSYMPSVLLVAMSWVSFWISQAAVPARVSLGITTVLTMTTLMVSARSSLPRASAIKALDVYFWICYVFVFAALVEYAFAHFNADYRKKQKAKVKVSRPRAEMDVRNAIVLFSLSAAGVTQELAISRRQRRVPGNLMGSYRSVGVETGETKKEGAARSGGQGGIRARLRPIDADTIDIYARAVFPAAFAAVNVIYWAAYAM
T2 sequence (P31644 32-462): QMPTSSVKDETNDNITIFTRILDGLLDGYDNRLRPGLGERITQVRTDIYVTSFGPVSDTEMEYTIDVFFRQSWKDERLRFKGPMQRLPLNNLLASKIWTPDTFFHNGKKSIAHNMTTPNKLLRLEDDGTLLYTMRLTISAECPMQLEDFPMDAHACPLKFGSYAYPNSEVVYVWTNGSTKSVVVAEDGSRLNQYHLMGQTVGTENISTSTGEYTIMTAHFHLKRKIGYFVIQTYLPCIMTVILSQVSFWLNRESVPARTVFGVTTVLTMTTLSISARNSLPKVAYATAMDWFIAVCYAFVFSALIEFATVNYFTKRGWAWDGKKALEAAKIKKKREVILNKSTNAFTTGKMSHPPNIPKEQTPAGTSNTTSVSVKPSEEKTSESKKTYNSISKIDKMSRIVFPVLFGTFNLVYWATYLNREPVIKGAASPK
T2 sequence (P28472 26-473): as the sequence (P28472 26-473) above
T2 sequence (P18507 40-475): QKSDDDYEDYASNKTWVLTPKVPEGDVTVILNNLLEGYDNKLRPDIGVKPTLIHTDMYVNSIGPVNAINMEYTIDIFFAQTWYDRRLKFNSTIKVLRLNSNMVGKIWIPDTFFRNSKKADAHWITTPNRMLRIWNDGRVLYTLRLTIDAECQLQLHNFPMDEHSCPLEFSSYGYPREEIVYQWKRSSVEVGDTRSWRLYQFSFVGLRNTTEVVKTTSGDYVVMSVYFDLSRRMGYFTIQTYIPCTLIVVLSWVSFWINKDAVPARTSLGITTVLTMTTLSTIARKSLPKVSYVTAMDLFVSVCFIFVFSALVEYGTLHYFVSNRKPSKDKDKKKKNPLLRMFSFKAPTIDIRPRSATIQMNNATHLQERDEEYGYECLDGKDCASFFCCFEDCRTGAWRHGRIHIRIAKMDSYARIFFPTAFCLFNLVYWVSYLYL
T1 sequence (P47869 29-451): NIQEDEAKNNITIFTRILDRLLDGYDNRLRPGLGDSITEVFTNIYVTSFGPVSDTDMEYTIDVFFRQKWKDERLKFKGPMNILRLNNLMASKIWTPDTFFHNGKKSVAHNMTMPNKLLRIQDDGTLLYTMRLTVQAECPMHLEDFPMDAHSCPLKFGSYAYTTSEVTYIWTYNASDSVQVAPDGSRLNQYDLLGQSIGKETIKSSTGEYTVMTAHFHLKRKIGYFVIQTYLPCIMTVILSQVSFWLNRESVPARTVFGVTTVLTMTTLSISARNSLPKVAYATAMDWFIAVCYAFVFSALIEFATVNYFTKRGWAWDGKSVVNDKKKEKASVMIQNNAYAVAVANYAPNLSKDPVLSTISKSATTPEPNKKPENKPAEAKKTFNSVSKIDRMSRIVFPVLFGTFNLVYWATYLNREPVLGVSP
T1 sequence (P28472 26-473): as the sequence (P28472 26-473) above
T1 sequence (P18507 40-475): as the sequence (P18507 40-475) above
T3 sequence (P14867 28-456): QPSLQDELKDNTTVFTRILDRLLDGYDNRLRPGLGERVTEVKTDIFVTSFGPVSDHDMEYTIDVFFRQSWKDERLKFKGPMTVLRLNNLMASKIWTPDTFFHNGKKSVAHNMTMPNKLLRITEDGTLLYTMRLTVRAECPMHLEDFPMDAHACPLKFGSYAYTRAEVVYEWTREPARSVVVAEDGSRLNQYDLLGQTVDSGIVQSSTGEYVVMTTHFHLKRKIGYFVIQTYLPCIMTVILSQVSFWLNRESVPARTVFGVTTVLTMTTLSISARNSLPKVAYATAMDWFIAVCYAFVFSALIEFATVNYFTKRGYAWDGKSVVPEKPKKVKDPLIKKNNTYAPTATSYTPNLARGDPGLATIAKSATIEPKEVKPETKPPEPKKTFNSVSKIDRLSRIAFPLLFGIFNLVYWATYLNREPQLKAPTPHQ
T3 sequence (P47870 25-512 limits assumed): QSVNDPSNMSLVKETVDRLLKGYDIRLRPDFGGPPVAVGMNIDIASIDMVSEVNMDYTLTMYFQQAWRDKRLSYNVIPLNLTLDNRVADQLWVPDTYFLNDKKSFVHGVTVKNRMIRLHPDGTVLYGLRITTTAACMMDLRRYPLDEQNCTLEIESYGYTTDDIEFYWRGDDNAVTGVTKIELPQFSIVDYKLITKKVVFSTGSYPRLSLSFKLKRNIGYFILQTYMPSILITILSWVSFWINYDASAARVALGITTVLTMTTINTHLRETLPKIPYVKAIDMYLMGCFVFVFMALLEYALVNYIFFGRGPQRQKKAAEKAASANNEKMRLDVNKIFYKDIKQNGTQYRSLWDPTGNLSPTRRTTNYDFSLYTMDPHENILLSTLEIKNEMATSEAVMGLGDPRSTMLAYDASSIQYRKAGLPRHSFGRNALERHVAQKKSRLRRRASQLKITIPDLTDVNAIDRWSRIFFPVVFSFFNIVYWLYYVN
T3 sequence (P18507 40-475): as the sequence (P18507 40-475) above

| Structure (SMILES) | Preliminary Classification of type of GABAAR modulation (GABAA receptor) | Potency, α2βy, *EC50 (GABAA α2θ3γ2L) | Potency, α5βy, *EC50 (GABAA α5θ3γ2L; [1]) | Potency, α1βy, *EC50 (GABAA α1β2γ2L; [2]) | Potency, α4βδ (also printed α4βy), *EC50 (GABAA α4θ3δ; [1]) | EC50 (GABAA α2θ3γ2L) [nM] | Potency, α2βy, % in brackets (GABAA α2θ3γ2L) | EC50 (GABAA α4θ3δ; PAM mode, GABA EC10-20, 6-point curve up to 10 μM, read-out: Potency, α4βδ (also printed α4βy), *EC50) [nM] | Potency, α4βδ (also printed α4βy), % in brackets (GABAA α4θ3δ) | Anxiolytic effect in OFT and EPM vs vehicle control (anxiety; 3.95 mg/kg IP, male and female SD rats, two-way ANOVA) | Effect in the open field test (OFT) (anxiety; 12.5 mg/kg IP, rats) | Lethargy (observation) (anxiety; 12.5 mg/kg IP, rats) | Impact on alcohol-induced LORR (duration) (loss-of-righting-reflex; 3.95 mg/kg IP with alcohol 3 g/kg) | Induction of LORR by compound alone (loss-of-righting-reflex; 3.95 mg/kg, 12.95 IP) | EC50 (GABAA α1β2γ2L; PAM mode, GABA EC10-20, 6-point curve up to 10 μM, EC50 called extrapolated, read-out: Potency, α1βy, *EC50) [nM] | Potency, α1βy, % in brackets (GABAA α1β2γ2L) | IC50 (GABAA α1β2γ2L) [nM] | IC50 (GABAA α4θ3δ) [nM] | EC50 (GABAA α5θ3γ2L; PAM mode, GABA EC10-20, 6-point curve up to 10 μM, read-out: Potency, α5βy, *EC50) [nM] | Potency, α5βy, % in brackets (GABAA α5θ3γ2L; bracketed % beside EC50/IC50) |
| --- | --- | --- | --- | --- | --- | --- | --- | --- | --- | --- | --- | --- | --- | --- | --- | --- | --- | --- | --- | --- |
| O=C1c2cc(Br)ccc2OC(c2cccc([N+](=O)[O-])c2)C1(CO)CO (stereo not drawn) [EC2-124] | Not Active | α1ßy (N.R.) α2βy (N.R.) α5βy (N.R.) α4βy (N.R.) | α1ßy (N.R.) α2βy (N.R.) α5βy (N.R.) α4βy (N.R.) | α1ßy (N.R.) α2βy (N.R.) α5βy (N.R.) α4βy (N.R.) | α1ßy (N.R.) α2βy (N.R.) α5βy (N.R.) α4βy (N.R.) | – | – | – | – | – | – | – | – | – | – | – | – | – | – | – |
| O=C1c2ccccc2OC(c2cccc([N+](=O)[O-])c2)C1(CO)CO (stereo not drawn) [EC2-104, 3,3-bis(hydroxymethyl)-2-(3-nitrophenyl)chroman-4-one] | Partial α2 GABAAR PAM | – | N.R. | N.R. | – | 11800 | +28% | > 10000 | +30% | – | – | – | – | – | – | – | – | – | – | – |
| O=C1NC(c2cccc([N+](=O)[O-])c2)Oc2ccc(Br)cc21 (stereo not drawn) [EC2-118, 6-bromo-2-(3-nitrophenyl)-2,3-dihydro-4H-benzo[e][1,3]oxazin-4-one] | Partial α1/2 GABAAR PAM | – | N.R. | – | N.R. | 125 | +26% | – | – | significant differences between 3.95 mg/kg dose and vehicle control | did not exhibit a significant effect | increased lethargy | did not have a significant impact on alcohol-induced LORR | did not induce an LORR | 136 | +29% | – | – | – | – |
| O=c1cc(-c2cccc([N+](=O)[O-])c2)oc2ccc(Br)cc12 [6-bromo-3′-nitroflavone, reference compound] | Partial α1 NAM | N.R. | N.R. | – | – | – | – | – | −30% | – | – | – | – | – | – | −21% | 5.9 | > 10000 | – | – |
| O=C1NC(c2cccc([N+](=O)[O-])c2)Nc2ccc(Br)cc21 (stereo not drawn) [EC2-117, 6-bromo-2-(3-nitrophenyl)-2,3-dihydroquinazolin-4(1H)-one] | Not active | α1 βy (N.R.) α2βy (N.R.) α5βy (N.R.) α4ßy (N.R.) | α1 βy (N.R.) α2βy (N.R.) α5βy (N.R.) α4ßy (N.R.) | α1 βy (N.R.) α2βy (N.R.) α5βy (N.R.) α4ßy (N.R.) | α1 βy (N.R.) α2βy (N.R.) α5βy (N.R.) α4ßy (N.R.) | – | – | – | – | – | – | – | – | – | – | – | – | – | – | – |
| O=C1c2cc(Br)ccc2OC(c2ccccc2)C1(CO)CO (stereo not drawn) [EC2-52, 6-bromo-3,3-bis(hydroxymethyl)-2-phenylchroman-4-one] | Partial α5 GABAAR PAM | N.R. | – | N.R. | N.R. | – | – | – | – | – | – | – | – | – | – | – | – | – | 1920 | +22% |
